Laboratory results from patent EP4342467A1, “KU INHIBITORS FOR USE IN TUMOR THERAPY” (Masarykova Univerzita, priority 2022, dated 2024).
Like-named read-outs stand apart in the source and are kept apart here.

Assays:
[1] = literature (Weterings et al. 2016); cited from earlier work
[2] = target: Ku complex (Homo sapiens, UniProt P12956+P13010); assay: microwell protein induced fluorescent enhancement assay (mwPIFE) of Ku-DNA binding; conditions: for IC50: estimated from the 0.5 to 8 µM concentration range, read-out: Inhibition of Ku-DNA binding IC50; for remaining activity at 8 µM: read-out: % binding at 8 µM (100% = 0.5% DMSO)
Chain of Ku complex (P12956 whole entry): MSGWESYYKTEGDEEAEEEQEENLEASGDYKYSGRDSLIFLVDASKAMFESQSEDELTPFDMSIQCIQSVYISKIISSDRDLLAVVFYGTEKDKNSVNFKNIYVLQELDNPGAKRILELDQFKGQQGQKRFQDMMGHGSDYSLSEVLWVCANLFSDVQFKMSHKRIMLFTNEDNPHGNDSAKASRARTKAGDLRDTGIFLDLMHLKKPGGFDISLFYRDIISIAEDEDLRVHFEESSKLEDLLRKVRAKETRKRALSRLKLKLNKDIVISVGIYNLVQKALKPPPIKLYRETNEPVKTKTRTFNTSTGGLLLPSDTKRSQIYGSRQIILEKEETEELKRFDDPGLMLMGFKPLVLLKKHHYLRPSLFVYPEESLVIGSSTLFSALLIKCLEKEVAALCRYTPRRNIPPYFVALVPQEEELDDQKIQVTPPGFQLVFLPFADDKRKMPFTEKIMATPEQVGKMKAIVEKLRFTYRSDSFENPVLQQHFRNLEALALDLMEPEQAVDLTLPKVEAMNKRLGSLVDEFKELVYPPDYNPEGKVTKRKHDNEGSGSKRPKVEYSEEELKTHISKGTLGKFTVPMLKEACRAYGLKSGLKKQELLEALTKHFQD
Chain of Ku complex (P13010 whole entry): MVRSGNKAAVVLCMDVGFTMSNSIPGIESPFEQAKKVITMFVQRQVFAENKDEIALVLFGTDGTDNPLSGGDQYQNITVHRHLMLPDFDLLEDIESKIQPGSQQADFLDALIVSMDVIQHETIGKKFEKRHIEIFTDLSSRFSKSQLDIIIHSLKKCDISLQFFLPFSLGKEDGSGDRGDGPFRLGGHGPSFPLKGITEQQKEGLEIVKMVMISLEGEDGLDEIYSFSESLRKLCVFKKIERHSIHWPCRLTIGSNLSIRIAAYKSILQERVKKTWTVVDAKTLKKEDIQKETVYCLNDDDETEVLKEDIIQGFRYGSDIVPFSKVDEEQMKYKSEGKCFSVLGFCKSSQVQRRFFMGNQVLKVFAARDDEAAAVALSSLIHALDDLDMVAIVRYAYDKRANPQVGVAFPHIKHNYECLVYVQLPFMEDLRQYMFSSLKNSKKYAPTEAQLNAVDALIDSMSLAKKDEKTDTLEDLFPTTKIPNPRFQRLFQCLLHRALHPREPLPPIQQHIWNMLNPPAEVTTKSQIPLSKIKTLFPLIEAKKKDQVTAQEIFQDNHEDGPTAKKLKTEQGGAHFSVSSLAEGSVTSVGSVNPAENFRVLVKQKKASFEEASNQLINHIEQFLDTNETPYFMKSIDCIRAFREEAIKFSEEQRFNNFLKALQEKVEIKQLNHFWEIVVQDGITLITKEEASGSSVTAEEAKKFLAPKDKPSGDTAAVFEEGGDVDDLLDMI
Procedure: A rapid method for detecting protein-nucleic acid interactions by protein induced fluorescence enhancement. Sci Rep 6, 39653. mwPIFE is based on enhanced fluorescence of cyanine fluorophores attached to nucleic acid probes upon protein binding. […] The probe was immobilized in 96 well plates through biotin (Btn) attached to one end of DNA and incubated with purified Ku complex (0.5 pmol) in 50 µl of binding buffer (10 mM calcium acetate, 60 mM potassium acetate, 20 mM TRISacetate pH 7.9, 100 mg BSA/1). Ku-DNA binding was calculated from altered fluorescence measured by a fluorescence plate reader (Valuchova et al., 2016). […]

[3] = tested on: HCT116 cells; assay: cell proliferation, ATPlite assay; format: cell-based; conditions: Homo sapiens, HCT-116, 120 h, read-out: Inhibition of cell proliferation IC50
Procedure: HCT116, U2OS and HeLa cells were grown in McCoy's 5a medium supplemented with 10% Fetal Bovine Serum, 2 mM L-Glutamine and Penicilin/Streptomycin 200 U/l each in the presence of Compound 1-9. After growth at 37 °C, 5% CO2 for 3 days, monolayer of cells was detached using TrypLE Express (Gibco), cells were counted using 0.4% trypan blue stain and hemocytometer. […] Number of viable cells was estimated using ATPlite kit (Perkin Elmer).

[4] = tested on: HCT116 cells; assay: C-circle assay (extrachromosomal circular telomeric DNA); format: cell-based, human; conditions: C-circle assay in HCT116 cells treated for 3 to 7 days
Procedure: HCT116 cell were incubated for 3, 5 or 7 days in McCoy's 5a medium with 10% Fetal Bovine Serum, 2 mM L-Glutamine and Penicilin/Streptomycin 200 U/l each and supplemented with Compound 1-9. C-circle assay that utilizes rolling circle amplification of circular DNA by φ29 polymerase was performed as described in Henson, J.D., Lau, L.M., Koch, S., Martin La Rotta, N., Dagg, R.A., and Reddel, R.R. (2017). The C-Circle Assay for alternative-lengthening-of-telomeres activity. Methods 114, 74-84. Amplified circular telomeric DNA was detected by dot blot hybridization with P^32-labeled telomeric DNA oligonucleotide (5'-[…]-3' (SEQ ID NO: 6)) (Figure 4).

[5] = tested on: U2OS; assay: combination with BIBR1532, relative growth by ATPlite; format: cell-based, human; conditions: 10 µM BIBR1532, 0.25 µM iKU-1 or their combination, 4 days
[6] = tested on: HeLa; assay: as above; format: cell-based, human; conditions: 10 µM BIBR1532, 0.25 µM iKU-1 or their combination, 4 days
[7] = tested on: HCT116; assay: as above; format: cell-based, human; conditions: HCT116; 10 µM BIBR1532, 0.25 µM iKU-1 or their combination; 4 days
Procedure: 10,000 HCT116 cells were seeded in 100 µl of McCoy's 5a medium supplemented with 10% Fetal Bovine Serum, 2 mM L-Glutamine and Penicilin/Streptomycin 200 U/l for 1 day in 96well plate and treated with 10 µM BIBR1532, 0.25 µM of iKU-1 or their combination for 4 days. Number of viable cells was measured by ATPlite kit (Perkin Elmer) and normalized to the treatment with 0.5% DMSO. The results presented in Table 2 show a synergistic effect of iKU-1 and BIBR1532 on the growth of HCT116 tumor cell line. Values in the table indicate relative growth assessed by ATPlite kit compared to the control sample treated with 0.5% DMSO after 4 days of treatment.

[8] = tested on: A2780; assay: growth of A2780 cells by ATPlite, alone and in combination with Bleomycin; format: cell-based, human; conditions: A2780; 0.025 µg/ml Bleomycin, 0.5 µM iKU-1 or their combination; 7 days
Procedure: 2,000 A2780 cells were seeded in 100 µl of RPMI 1640 medium with 300 mg/l L-Glutamine and 10% Fetal Bovine Serum for 1 day in 96well plate and treated by 0.025 µg/ml of Bleomycin, 0.5 µM of iKu-1 or their combination for 7 days. Number of viable cells was measured by ATPlite kit (Perkin Elmer) and normalized to the treatment with 0.5% DMSO.
Values in the table indicate relative growth assessed by ATPlite kit compared to the control sample treated with 0.5% DMSO after 7 days of treatment.
2,000 SKOV3 and A2780 cells were seeded in 100 µl of McCoy's 5a or RPMI 1640 media, respectively, for one day and then incubated with iKU-1 for 7 days. Number of viable cells was measured by ATPlite kit (Perkin Elmer) and normalized to the treatment with 0.5% DMSO.

[9] = mwPIFE, 8 µM inhibitor compared to 0.5% DMSO
[10] = ATPlite assay in HCT116 cells treated for 5 days

Compound	IC50 ([2]; mwPIFE)	remaining activity at 8 µM [2]	IC50 [3]	Concentration inducing c-circle formation [4]	also measured
COc1ccc(CCNc2ncc3c(=O)n(-c4cccc(F)c4)c(=O)[nH]c3n2)cc1OC [STL127705]	–	–	–	–	concentration conferring enhanced sensitivity to irradiation [1]: 20 to 30 µM
CC(=O)NCCc1ccc(-c2csc(NC(=O)c3cncc(Br)c3)n2)cc1 [Compound 5]	> 8 µM	75%	< 5 µM	–	–
O=C(Nc1nc(-c2cccnc2)cs1)c1cncc(Br)c1 [Compound 7]	> 8 µM	55%	> 20 µM	50 µM	–
CC(=O)Nc1ccc(-c2csc(NC(=O)c3cncc(Br)c3)n2)cc1 [Compound 6]	> 8 µM	55%	20 µM	–	–
Cc1ccc(C(=O)Nc2nc(-c3ccccc3)cs2)cc1 [Compound 9]	> 8 µM	–	–	20 µM	remaining activity at 8 µM [2, 9]: 99%; IC50 [3, 10]: 9 µM
O=C(Nc1nc(-c2ccccn2)cs1)c1cccc(Br)c1 [Compound 3]	–	–	–	–	remaining activity at 8 µM [2, 9]: 76%; IC50 [3, 10]: < 5 µM
O=C(Nc1nc(-c2ccccc2)cs1)c1cncc(Br)c1 [Compound 8]	> 8 µM	71%	> 20 µM	50 µM	–
O=C(Nc1nc(-c2ccccn2)cs1)c1ccc(NC2CC2)nc1 [Compound 4]	7 µM	47%	8 µM	10 µM	–
C/C(=C\C(=O)Nc1ccccc1C(=O)O)c1ccc2ccccc2c1 [BIBR1532, reference compound]	–	–	–	–	relative growth assessed by ATPlite kit compared to the control sample treated with 0.5% DMSO [5]: 0.88; relative growth assessed by ATPlite kit compared to the control sample treated with 0.5% DMSO [6]: 0.92; relative growth assessed by ATPlite kit compared to the control sample treated with 0.5% DMSO [7]: 0.88
O=C(Nc1nc(-c2ccccn2)cs1)c1cccnc1 [Compound 2]	–	–	–	5 µM	remaining activity at 8 µM [2, 9]: 97%; IC50 [3, 10]: < 5 µM
Bleomycin [reference compound]	–	–	–	–	relative growth assessed by ATPlite kit compared to the control sample treated with 0.5% DMSO [8]: 1.00
